From patent US20090264471A1, “Compounds, Compositions and Methods Comprising Triazole Derivatives” (Institute for OneWorld Health, priority 2008, published 2009)

Biological target: T1, CFTR (Homo sapiens, UniProt P13569)
T1 construct: results in the phosphorylation and opening of CFTR anion channels; host or cells: Human colonic T84 cells
Assay: T84 assay (FLIPR membrane potential dye, forskolin/IBMX-stimulated CFTR channel activity)
Type: cell-based
Settings: human colonic T84 cells, average of at least 2 runs unless annotated n = 1
Experimental: (§1) For example, Human colonic T84 cells can be acquired from the European Collection of Cell Cultures (ECACC) and grown in standard culture conditions as described by the supplier. On the day before assay 25,000 T84 cells per well are plated into standard black walled, clear bottom 384-well assay plates in standard growth medium consisting of DMEM:F12 with 10% FBS and incubated overnight. On the day of the assay the plates are washed using a standard assay buffer (HBSS with 10 mM Hepes) and incubated for 15 minutes in serum free cell culture medium before the addition of a commercially available membrane potential sensitive fluorescent dye (FLIPR Red membrane potential dye, Molecular Devices Corporation). T84 cells are incubated with the FLIPR Red membrane potential dye for 45 minutes in the presence and absence of test compound before being transferred to a commercially available fluorescence imaging plate reader (FLIPR384, Molecular Devices Corporation). Fluorescence levels are monitored continuously every second for 150 seconds; after an initial 10 second baseline, CFTR channel activity is stimulated through the addition of 10 μM forskolin in the presence of 100 μM of the phosphodiesterase inhibitor iso-butyl-methylxanthine (IBMX). Addition of the forskolin leads to the activation of intracellular adenylyl cylase 1, elevating cAMP levels and results in the phosphorylation and opening of CFTR anion channels. CFTR channel opening causes chloride ion efflux and subsequent depolarization of the cells, which is measured by an increase in fluorescence. CFTR inihibitor compounds prevent cell depolarization and the associated increase in fluorescence.
as §1, with “Human colonic” for “For example, Human colonic”, “T84 cells are acquired from” for “T84 cells can be acquired from”, “(ECACC) and are grown in” for “(ECACC) and grown in”, “fluorescence. CFTR inhibitor compounds prevent” for “fluorescence. CFTR inihibitor compounds prevent”

T1 sequence (P13569 whole entry): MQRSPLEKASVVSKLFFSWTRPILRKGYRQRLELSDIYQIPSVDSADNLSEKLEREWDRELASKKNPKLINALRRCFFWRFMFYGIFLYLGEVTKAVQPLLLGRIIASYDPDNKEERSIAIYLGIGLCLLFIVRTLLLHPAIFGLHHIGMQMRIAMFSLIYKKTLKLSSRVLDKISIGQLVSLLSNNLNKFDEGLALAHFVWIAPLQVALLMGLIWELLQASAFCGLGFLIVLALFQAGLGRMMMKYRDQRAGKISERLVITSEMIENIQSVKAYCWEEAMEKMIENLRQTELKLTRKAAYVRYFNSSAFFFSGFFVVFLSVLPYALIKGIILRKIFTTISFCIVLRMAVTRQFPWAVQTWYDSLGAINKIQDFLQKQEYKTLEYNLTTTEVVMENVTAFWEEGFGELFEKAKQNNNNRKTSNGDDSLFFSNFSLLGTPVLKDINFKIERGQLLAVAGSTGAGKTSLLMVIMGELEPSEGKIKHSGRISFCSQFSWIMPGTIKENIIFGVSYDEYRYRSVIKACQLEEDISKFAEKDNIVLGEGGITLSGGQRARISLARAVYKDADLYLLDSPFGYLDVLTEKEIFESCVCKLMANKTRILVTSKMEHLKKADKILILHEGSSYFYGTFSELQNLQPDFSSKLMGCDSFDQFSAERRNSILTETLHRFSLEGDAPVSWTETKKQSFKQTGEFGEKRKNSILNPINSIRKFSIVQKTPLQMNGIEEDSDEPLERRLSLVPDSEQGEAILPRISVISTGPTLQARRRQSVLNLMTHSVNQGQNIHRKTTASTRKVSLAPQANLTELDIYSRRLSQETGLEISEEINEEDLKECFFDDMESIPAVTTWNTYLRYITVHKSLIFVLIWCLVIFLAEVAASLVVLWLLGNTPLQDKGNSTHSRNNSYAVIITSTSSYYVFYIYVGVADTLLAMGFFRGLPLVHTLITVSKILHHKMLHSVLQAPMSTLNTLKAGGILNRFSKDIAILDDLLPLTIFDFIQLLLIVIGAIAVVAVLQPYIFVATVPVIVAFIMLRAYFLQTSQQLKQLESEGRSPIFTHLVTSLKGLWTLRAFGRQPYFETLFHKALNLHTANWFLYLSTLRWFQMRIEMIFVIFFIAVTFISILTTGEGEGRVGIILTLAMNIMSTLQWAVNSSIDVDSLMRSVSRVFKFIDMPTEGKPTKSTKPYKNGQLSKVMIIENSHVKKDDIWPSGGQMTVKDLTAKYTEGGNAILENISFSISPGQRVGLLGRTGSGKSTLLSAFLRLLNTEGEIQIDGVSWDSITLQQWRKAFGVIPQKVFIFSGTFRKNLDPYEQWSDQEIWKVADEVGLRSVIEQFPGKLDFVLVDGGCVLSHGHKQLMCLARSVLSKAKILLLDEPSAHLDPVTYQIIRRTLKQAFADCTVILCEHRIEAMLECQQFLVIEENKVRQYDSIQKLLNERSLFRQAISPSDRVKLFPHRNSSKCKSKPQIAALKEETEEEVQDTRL

Row | SMILES | IC50 [µM]
1 | O=C(NCc1cccc(OC(F)(F)F)c1)c1n[nH]c(-c2cc(Cl)c(O)c(Cl)c2)n1 [Compound 86, 5-(3,5-dichloro-4-hydroxyphenyl)-N-(3-(trifluoromethoxy)benzyl)-1H-1,2,4-triazole-3-carboxamide] | 22.2
2 | O=C(NCc1ccc(C(F)(F)F)cc1)c1n[nH]c(-c2cc(Cl)c(O)c(Cl)c2)n1 [Compound 87, 5-(3,5-dichloro-4-hydroxyphenyl)-N-(4-(trifluoromethyl)benzyl)-1H-1,2,4-triazole-3-carboxamide] | 25.1
3 | O=C(c1n[nH]c(-c2cc(Cl)c(O)c(Cl)c2)n1)N1CCC(Cc2ccccc2)CC1 [Compound 82, (4-benzylpiperidin-1-yl)(5-(3,5-dichloro-4-hydroxyphenyl)-1H-1,2,4-triazol-3-yl)methanone] | 7.05
4 | O=C(NCc1ccc(Oc2ccccc2)cc1)c1nc(-c2cc(Br)c(O)c(Br)c2)n[nH]1 [Compound 81, 3-(3,5-dibromo-4-hydroxyphenyl)-N-(4-phenoxybenzyl)-1H-1,2,4-triazole-5-carboxamide] | 1.51
5 | O=C(NCc1ccc(OC(F)(F)F)cc1)c1n[nH]c(-c2cc(Cl)c(O)c(Cl)c2)n1 [Compound 94, 5-(3,5-dichloro-4-hydroxyphenyl)-N-(4-(trifluoromethoxy)benzyl)-1H-1,2,4-triazole-3-carboxamide] | 9.11
6 | O=C(NCc1ccc(Cl)c(Cl)c1)c1n[nH]c(-c2cc(Cl)c(O)c(Cl)c2)n1 [Compound 91, 5-(3,5-dichloro-4-hydroxyphenyl)-N-(3,4-dichlorobenzyl)-1H-1,2,4-triazole-3-carboxamide] | 1.57
7 | O=C(NCc1ccc(F)c(F)c1)c1n[nH]c(-c2cc(Cl)c(O)c(Cl)c2)n1 [Compound 84, 5-(3,5-dichloro-4-hydroxyphenyl)-N-(3,4-difluorobenzyl)-1H-1,2,4-triazole-3-carboxamide] | 15.6
8 | O=C(c1nc(-c2cc(Br)c(O)c(Br)c2)n[nH]1)N1CCC(Cc2ccccc2)CC1 [Compound 80, (4-Benzylpiperidin-1-yl)(3-(3,5-dibromo-4-hydroxyphenyl)-1H-1,2,4-triazol-5-yl)methanone] | 10.5
9 | O=C(NCc1ccc(Oc2ccccc2)cc1)c1n[nH]c(-c2cc(Cl)c(O)c(Cl)c2)n1 [Compound 92, 5-(3,5-dichloro-4-hydroxyphenyl)-N-(4-phenoxybenzyl)-1H-1,2,4-triazole-3-carboxamide] | 3.28
10 | O=C(c1nc(-c2cc(Br)c(O)c(Br)c2)n[nH]1)N1CCN(c2cccc(C(F)(F)F)c2)CC1 [Compound 79, (3-(3,5-dibromo-4-hydroxyphenyl)-1H-1,2,4-triazol-5-yl)(4-(3-(trifluoromethyl)phenyl)piperazin-1-yl)methanone] | 6.93
11 | CN(Cc1ccc(Cl)cc1)C(=O)c1n[nH]c(-c2cc(Cl)c(O)c(Cl)c2)n1 [Compound 93, N-(4-chlorobenzyl)-5-(3,5-dichloro-4-hydroxyphenyl)-N-methyl-1H-1,2,4-triazole-3-carboxamide] | 25
12 | O=C(c1n[nH]c(-c2cc(Cl)c(O)c(Cl)c2)n1)N1CCN(c2cccc(C(F)(F)F)c2)CC1 [Compound 83, (5-(3,5-dichloro-4-hydroxyphenyl)-1H-1,2,4-triazol-3-yl)(4-(3-(trifluoromethyl)phenyl)piperazin-1-yl)methanone] | 6.9
13 | O=C(NCc1cc(F)c(F)c(F)c1)c1n[nH]c(-c2cc(Cl)c(O)c(Cl)c2)n1 [Compound 89, 5-(3,5-dichloro-4-hydroxyphenyl)-N-(3,4,5-trifluorobenzyl)-1H-1,2,4-triazole-3-carboxamide] | 5.25
14 | CN(Cc1ccc(C(C)(C)C)cc1)C(=O)c1n[nH]c(-c2cc(Cl)c(O)c(Cl)c2)n1 [Compound 96, N-(4-tert-butylbenzyl)-5-(3,5-dichloro-4-hydroxyphenyl)-N-methyl-1H-1,2,4-triazole-3-carboxamide] | 7.53
15 | O=C(NC(c1ccccc1)c1ccccc1)c1nc(-c2cc(Br)c(O)c(Br)c2)n[nH]1 [Compound 78, N-benzhydryl-3-(3,5-dibromo-4-hydroxyphenyl)-1H-1,2,4-triazole-5-carboxamide] | 3.23
16 | CN(Cc1ccc(Cl)c(Cl)c1)C(=O)c1n[nH]c(-c2cc(Cl)c(O)c(Cl)c2)n1 [Compound 95, 5-(3,5-Dichloro-4-hydroxyphenyl)-N-(3,4-dichlorobenzyl)-N-methyl-1H-1,2,4-triazole-3-carboxamide] | 7.92
17 | O=C(NCc1cc(Cl)cc(Cl)c1)c1n[nH]c(-c2cc(Cl)c(O)c(Cl)c2)n1 [Compound 97, 5-(3,5-dichloro-4-hydroxyphenyl)-N-(3,5-dichlorobenzyl)-1H-1,2,4-triazole-3-carboxamide] | 6.8
18 | CN(Cc1cccc(C(F)(F)F)c1)C(=O)c1n[nH]c(-c2cc(Cl)c(O)c(Cl)c2)n1 [Compound 90, 5-(3,5-dichloro-4-hydroxyphenyl)-N-methyl-N-(3-(trifluoromethyl)benzyl)-1H-1,2,4-triazole-3-carboxamide] | 24.1
19 | O=C(NC(c1ccccc1)c1ccccc1)c1n[nH]c(-c2cc(Cl)c(O)c(Cl)c2)n1 [Compound 88, N-benzhydryl-5-(3,5-dichloro-4-hydroxyphenyl)-1H-1,2,4-triazole-3-carboxamide] | 7.33
20 | O=C(NCc1ccccc1C(F)(F)F)c1n[nH]c(-c2cc(Cl)c(O)c(Cl)c2)n1 [Compound 85, 5-(3,5-dichloro-4-hydroxyphenyl)-N-(2-(trifluoromethyl)benzyl)-1H-1,2,4-triazole-3-carboxamide] | 18
